The text below walks through data of patent publication US9341616B2, “Sweet taste receptor chimeric proteins and use thereof” (AJINOMOTO CO., INC., priority 2014, dated 2016).

Residues, ends and D or L forms follow the SMILES beside them.

hT1R2/T1R3mosaicB, sequence (Q8TE23 20-839, stated change not applied): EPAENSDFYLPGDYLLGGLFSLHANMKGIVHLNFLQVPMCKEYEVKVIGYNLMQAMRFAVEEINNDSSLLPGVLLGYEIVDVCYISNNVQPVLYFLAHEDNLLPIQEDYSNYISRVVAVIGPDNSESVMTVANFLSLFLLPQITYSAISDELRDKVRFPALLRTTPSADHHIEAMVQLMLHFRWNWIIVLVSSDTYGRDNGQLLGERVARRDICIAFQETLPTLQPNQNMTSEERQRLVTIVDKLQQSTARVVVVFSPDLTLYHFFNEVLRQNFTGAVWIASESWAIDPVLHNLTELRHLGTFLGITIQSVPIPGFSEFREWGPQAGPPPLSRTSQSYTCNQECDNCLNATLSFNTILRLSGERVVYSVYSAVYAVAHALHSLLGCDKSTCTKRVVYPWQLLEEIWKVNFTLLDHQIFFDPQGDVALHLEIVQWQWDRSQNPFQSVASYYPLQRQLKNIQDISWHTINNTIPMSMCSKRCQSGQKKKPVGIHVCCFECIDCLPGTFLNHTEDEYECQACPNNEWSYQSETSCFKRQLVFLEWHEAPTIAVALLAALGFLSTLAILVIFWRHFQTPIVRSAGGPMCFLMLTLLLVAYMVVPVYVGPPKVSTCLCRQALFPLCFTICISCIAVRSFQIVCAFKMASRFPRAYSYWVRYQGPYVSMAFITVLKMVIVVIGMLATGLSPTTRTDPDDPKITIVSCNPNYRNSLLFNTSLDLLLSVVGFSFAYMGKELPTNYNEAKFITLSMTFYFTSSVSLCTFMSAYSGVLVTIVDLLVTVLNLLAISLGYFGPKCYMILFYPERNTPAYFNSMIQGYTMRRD
hT1R2/T1R3mosaicB, sequence (Q925D8 with tags, fused parts or gaps with the stated changes limits assumed): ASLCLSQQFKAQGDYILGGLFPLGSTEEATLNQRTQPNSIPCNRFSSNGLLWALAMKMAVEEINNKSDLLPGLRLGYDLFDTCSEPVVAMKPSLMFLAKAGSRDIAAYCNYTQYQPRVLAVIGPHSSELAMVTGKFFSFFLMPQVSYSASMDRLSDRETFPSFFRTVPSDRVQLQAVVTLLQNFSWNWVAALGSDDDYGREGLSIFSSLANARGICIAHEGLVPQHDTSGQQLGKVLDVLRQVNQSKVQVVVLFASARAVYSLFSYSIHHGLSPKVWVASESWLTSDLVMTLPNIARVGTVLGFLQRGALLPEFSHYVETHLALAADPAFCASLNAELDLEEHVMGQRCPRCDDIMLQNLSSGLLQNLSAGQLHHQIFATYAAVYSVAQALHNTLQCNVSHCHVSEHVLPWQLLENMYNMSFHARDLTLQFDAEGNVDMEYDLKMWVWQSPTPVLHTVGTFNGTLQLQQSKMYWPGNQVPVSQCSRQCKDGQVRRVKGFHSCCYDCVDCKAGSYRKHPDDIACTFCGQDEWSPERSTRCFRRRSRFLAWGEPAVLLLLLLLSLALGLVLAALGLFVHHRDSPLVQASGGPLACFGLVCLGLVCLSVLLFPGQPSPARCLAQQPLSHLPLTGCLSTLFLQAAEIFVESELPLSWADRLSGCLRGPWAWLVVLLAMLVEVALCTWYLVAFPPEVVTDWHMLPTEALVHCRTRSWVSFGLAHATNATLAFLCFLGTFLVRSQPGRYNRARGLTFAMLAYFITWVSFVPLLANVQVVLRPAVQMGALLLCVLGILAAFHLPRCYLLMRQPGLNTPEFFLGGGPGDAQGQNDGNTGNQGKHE

This experiment has as its target hT1R2/T1R3mosaicB (UniProt Q8TE23+Q925D8, A558R/A588V/A645S/A698V/A702T/A793V/A807V/A88D/C582S/C678S/E725V/F541I/F612A/F622V/F695L/F71L/G86K/H728R/I152V/I617V/I706V/I740A/I803L/K555R/K565R/K818R/K827G/L151M/L560F/L684P/L68N/L72W/L735F/L823M/L825Q/M644L/M744T/M74L/N547G/N675D/P545F/P561R/P564S/P67S/Q123R/Q550E/Q611L/Q757R/Q795R/Q831P/R632Q/S112P/S124D/S576L/S595F/S610P/S635P/S637R/S679G/S717H/T109A/T542A/T663I/T694M/T813A/V120A/V573A/V584A/V718M/V723A/V729T/V738A/V805L/V812A/V821L/W599R/W676R/W824R/Y680C/Y794L). The conditions noted are these: Table 6; genes hT2/T1R3mB (hT1R2, T1R3mB); HEK293E cells.
On to `CC1=CC(=O)NS(=O)(=O)O1` [Acesulfame K, acesulfame potassium], for which the S/N is on record as 5.5.

In turn, `COC(=O)[C@H](Cc1ccccc1)NC(=O)[C@H](CC(=O)O)NCCCc1ccc(OC)c(O)c1` [Advantame, advantame] returned a S/N of 8.5. With `COC(=O)[C@H](Cc1ccccc1)NC(=O)[C@@H](N)CC(=O)O` [Aspartame, aspartame] (HELM PEPTIDE1{D.F.[CO[*:1]]}$$$$V2.0) the figure was 5.4. `COc1ccc(CCC(=O)c2c(O)cc(O[C@@H]3O[C@H](CO)[C@@H](O)[C@H](O)[C@H]3O[C@@H]3O[C@@H](C)[C@H](O)[C@@H](O)[C@H]3O)cc2O)cc1O` [NHDC, neohesperidin dihydrochalcone] returned a S/N of 4.8. With `COC(=O)[C@H](Cc1ccccc1)NC(=O)[C@H](CC(=O)O)NCCC(C)(C)C` [Neotame, neotame] the figure was 6.0; with `C[C@H](NC(=Nc1ccc(C#N)cc1)NCC(=O)O)c1ccccc1` [SC-45647, [3-[(S)-1-phenylethyl]-2-(4-cyanophenyl)guanidino]acetic acid], 7.0; with `O=C1NS(=O)(=O)c2ccccc21.[Na]` [Saccharin Na, sodium saccharin], 5.4. With `OC[C@H]1O[C@H](O[C@]2(CCl)O[C@H](CCl)[C@@H](O)[C@@H]2O)[C@H](O)[C@@H](O)[C@H]1Cl` [Sucralose, sucralose] the figure was 4.1. Next, `OC[C@H]1O[C@@](CO)(O[C@H]2O[C@H](CO)[C@@H](O)[C@H](O)[C@H]2O)[C@@H](O)[C@@H]1O` [Sucrose, sucrose]: 4.7.
